From patent US20230094545A1, “S1P RECEPTOR MODULATORS” (AKAAL PHARMA PTY LTD, priority 2020, published 2023)

Test system: middle cerebral artery occlusion (MCAO)
Experiment: Middle cerebral artery occlusion (MCAO) model of stroke
Assay type: in vivo
Conditions: oral 1, 3 and 5 mg/kg; ischemia 60 min, reperfusion 72 h
Procedure: The compound of Formula I was assessed in an animal model of stroke, namely the middle cerebral artery occlusion (MCAO) model. The effect of a compound of Formula I on infarctions (TTC staining) and BBB leakage (Evan's blue extravasation) ischemia for 60 min and reperfusion for 72 h was assessed.

For `CCCOc1ccc(-c2nc(-c3ccc4oc(C(N)(CO)CO)cc4c3)no2)cc1Cl` [compound of formula (I)], the “infarct volume, infarct area, sensory motor function, blood brain barrier leakage” value was “significantly reduced the infarct volume, infract area and sensory motor function and blood brain barrier leakage”.
